Assay: mn = molality of the nth substance listed, in mol/kg
Conditions: 101.3 kPa, Liquid; for speed of sound: Single path-length method; for mass density: Vibrating tube method

COCCO [2-methoxyethan-1-ol] + O
Conditions	mass density, 288.15 K [kg/m3]	mass density, 298.15 K [kg/m3]	mass density, 308.15 K [kg/m3]	speed of sound, 288.15 K [m/s]	speed of sound, 298.15 K [m/s]	speed of sound, 308.15 K [m/s]
m1 = 0.1766	999.359	997.221	994.075	1475.3	1504.9	1526.1
m1 = 0.3377	999.461	997.304	994.169	1487.3	1511.2	1531.6
m1 = 0.3987	999.495	997.331	994.202	1486.9	1513.8	1533.1
m1 = 0.5117	999.548	997.377	994.256	1492.9	1518	1537
m1 = 0.6355	999.593	997.421	994.305	1498.1	1522.9	1540.5
m1 = 0.7947	999.638	997.462	994.361	1506.8	1529.3	1546
m1 = 1.012	999.666	997.507	994.412	1518.1	1539.1	1553.7

COCCOCCOCCO [2-[2-(2-methoxyethoxy)ethoxy]ethanol] + O
Conditions	mass density, 288.15 K [kg/m3]	mass density, 298.15 K [kg/m3]	mass density, 308.15 K [kg/m3]	speed of sound, 288.15 K [m/s]	speed of sound, 298.15 K [m/s]	speed of sound, 308.15 K [m/s]
m1 = 0.0992	1000.76	998.595	995.371	1476.9	1505.2	1526.8
m1 = 0.2191	1002.54	1000.32	997.022	1490.1	1516.8	1535.9
m1 = 0.4289	1005.5	1003.2	999.755	1510.7	1533	1549.8
m1 = 0.5088	1006.57	1004.24	1000.75	1517.7	1539.4	1554.7
m1 = 0.5825	1007.53	1005.17	1001.64	1525	1544.9	1559.5
m1 = 0.7077	1009.12	1006.71	1003.1	1537.2	1555.8	1568.3
m1 = 0.7956	1010.2	1007.75	1004.09	1543.9	1560.4	1572.2
m1 = 0.9789	1012.35	1009.85	1006.07	1467.3	1570.5	1580

COCCOCCO [2-(2-methoxyethoxy)ethanol] + O
Conditions	mass density, 288.15 K [kg/m3]	mass density, 298.15 K [kg/m3]	mass density, 308.15 K [kg/m3]	speed of sound, 288.15 K [m/s]	speed of sound, 298.15 K [m/s]	speed of sound, 308.15 K [m/s]
m1 = 0.1113	999.888	997.716	994.536	1477.1	1505.1	1526.8
m1 = 0.1346	1000.02	997.84	994.655	1480.4	1508.5	1529.1
m1 = 0.3285	1001.11	998.835	995.615	1494.2	1519.7	1538.8
m1 = 0.4005	1001.49	999.182	995.953	1498.2	1523.4	1541.4
m1 = 0.62	1002.6	1000.22	996.952	1516.3	1537.8	1553.6
m1 = 0.7114	1003.02	1000.62	997.341	1523.8	1544.5	1558.8
m1 = 0.9906	1004.26	1001.81	998.476	1539.6	1556.8	1569.1
m1 = 1.052	1004.52	1002.03	993.955	1548	1497.7	1574.7

CCCCn1cc[n+](C)c1.[Br-] [1-butyl-3-methylimidazolium bromide] + O
Conditions	mass density, 288.15 K [kg/m3]	mass density, 298.15 K [kg/m3]	mass density, 308.15 K [kg/m3]	speed of sound, 288.15 K [m/s]	speed of sound, 298.15 K [m/s]	speed of sound, 308.15 K [m/s]
m1 = 0.0915	996.409	996.531	991.528	1490.7	1516.7	1535.5
m1 = 0.0969	1001.56	999.293	996.365	1489.1	1517	1537.9
m1 = 0.1014	989.502	997.101	992.565	1490.9	1520.2	1540.2
m1 = 0.2656	1010.44	1007.45	1005.51	1511.6	1536.2	1554.5
m1 = 0.2803	1007.11	1005.82	1002.41	1512.3	1536.8	1555.3
m1 = 0.2869	1010.49	1005.51	1001.76	1512.3	1536.8	1555.3
